Data from US12448491B2, “Nano-patterend conductive polymer substrate with improved cell alignment, maturity, adhesion, and connectivity and method for manufacturing same” (priority 2022, dated 2025).

Columns and labels:
cardiomyocytes = experiment: Drug screening on bare and embedded PDMS cantilevers (beat displacement); format: cell-based, rat; conditions: for displacement reduction: 10 nM drug; for contraction returned compared with before drug treatment: 24 h after media replacement
Excerpt: To quantitatively analyze the correlation between cell maturation and drug toxicity, polymer cantilever arrays composed of the bare thin film and the embedded thin film were fabricated.

[1] = test system: human-induced pluripotent stem cell-cardiomyocytes (hiPSC-CMs); experiment: Drug screening for hiPSC-CMs on bare and embedded PDMS; format: cell-based; conditions: after 48 h
Experimental: Since pre-clinical studies on rats could not completely predict effects on the human heart, human-induced pluripotent stem cell-cardiomyocytes (hiPSC-CMs) had significant advantages over the use of animal models. To further investigate the responses of different drugs on immature and mature cardiomyocytes in human cells, hiPSC-CMs were cultured.

[2] = test system: neonatal rat ventricular myocytes (NRVMs); experiment: Comparison of NRVM and hiPSC-CM in drug test (NRVM); format: cell-based; conditions: animal cells
Excerpt: (§1) There are several similarities and differences in the drug response between animal and human cardiomyocytes.

[3] = test system: human-induced pluripotent stem cell-cardiomyocytes (hiPSC-CMs); experiment: Comparison of NRVM and hiPSC-CM in drug test (hiPSC-CM); format: cell-based
Excerpt: as §1

| resistance of cardiomyocytes to the drug (cardiomyocytes; cultured on embedded PDMS, FIGS. 17B and 17C) | tendency of beat frequency and contraction with increasing drug ([3]; human cells) | displacement reduction (cardiomyocytes; bare PDMS cantilever) | displacement reduction (cardiomyocytes; embedded PDMS cantilever) | beating of cardiomyocytes (cardiomyocytes; 1 μM drug, cultured on bare PDMS) | beat rate level compared with the maximum displacement value (cardiomyocytes; 1 μM drug, cultured on embedded PDMS) | contraction returned compared with before drug treatment (cardiomyocytes; bare PDMS cantilever) | contraction returned compared with before drug treatment (cardiomyocytes; embedded PDMS cantilever) | decreased contraction force returned after washing (cardiomyocytes; after washing for 48 h, AgNW-embedded PDMS substrate) | beat behavior after washing (cardiomyocytes; after washing for 48 h, control bare PDMS) | IC50 (cardiomyocytes; cardiomyocytes cultured on bare PDMS thin film) | IC50 (cardiomyocytes; cardiomyocytes cultured on embedded PDMS thin film) | Compound | contraction force returned after replacement of culture ([1]; hiPSC-CMs on bare PDMS) | contraction force returned after replacement of culture ([1]; hiPSC-CMs on embedded PDMS) | tendency of beat frequency and contraction with increasing drug [2] | IC50 ([3]; (b) of FIG. 20A, NRVM vs hiPSC-CM comparison, cell type of the value not stated) |
| --- | --- | --- | --- | --- | --- | --- | --- | --- | --- | --- | --- | --- | --- | --- | --- | --- |
| enhanced resistance |  |  |  |  |  |  |  |  |  |  |  | Cc1cccc(CCN2CCC(C(=O)c3ccc(NS(C)(=O)=O)cc3)CC2)n1 [E-4031] |  |  |  |  |
|  | decrease only displacement | half displacement reduction | about 10% | no longer beat | 20% | 10% | ≥ 75% | 75% | not returned to the initial state | 174 nM | 521 nM | Cc1ccc2c(c1)C(=O)C1(O)CCN(c3ccccc3)C1=N2 (stereo not shown) [blebbistatin] | did not return | ≥ 70% | decrease both beat frequency and contraction force | ~1000 nM |
